Values quoted from earlier work, collected in patent publication US20130089529A1, “AGENT FOR OSTEOGENESIS USING SUBSTANCE-P AND PREPARATION PROCESS THEREOF” (UNIVERSITY-INDUSTRY COOPERATION GROUP OF KYUNGHEE UNIVERSITY, priority 2010, published 2013).

Tests used:
[1] = tested on: CD29+ MSCs; conditions: mice without wound, intravenous injection of Substance-P, versus non-injected mice; previous study KR 10-2006-0037176
[2] = tested on: MSCs; conditions: in vitro 3-D collagen gel; by inducing matrix-degrading enzymes and inhibiting their inhibitors; previous study KR 10-2006-0037176

Substance-P
CD29+ MSCs mobilized into peripheral blood, relative to non-injected mice [1]: approximately 15 times
Migration of MSCs in 3-D collagen gel [2]: stimulated migration of MSCs
